Results from US9629828B2, “Methods of treating traveler's diarrhea and hepatic encephalopathy” (priority 2008, dated 2017).
“And” between values parts separate entries of the source, which are not always exact repeats. Equal entries are not always repeated.

Tests used:
[1] = tested on: subjects in remission from hepatic encephalopathy (HE); assay: First study (3001): time to first breakthrough overt HE episode, rifaximin 550 mg BID vs placebo, 6 months; format: in vivo, human
Excerpt: Study 3001 was designed to continuously monitor patients to ensure the validity and completeness of HE breakthrough capture. Following screening, subjects entered a treatment period that included weekly visits and/or phone calls with patients and caregivers. Subjects were followed for the protocol specified 168 days. Complete capture of breakthrough events as well as mortality and provided assurance of the validity of the study outcome. Narratives for each subject experiencing HE breakthrough, AE's resulting in termination, SAEs or death were provided in the NDA.
Eligible subjects had 2 episodes of HE associated with chronic liver disease in the previous 6 months.
Patients had MELD scores of either […] (27%) or 11 to 18 (64%) at baseline. No patients were enrolled with a MELD score of >25. Nine percent of the patients were Child-Pugh Class C. Lactulose was concomitantly used by 91% of the patients in each treatment arm of the study. Per the study protocol, patients were withdrawn from the study after experiencing a breakthrough HE episode.
The primary endpoint was the time to first breakthrough overt HE episode. A breakthrough overt HE episode was defined as a marked deterioration in neurological function and an increase of Conn score to Grade ≧2. In patients with a baseline Conn score of 0, a breakthrough overt HE episode was defined as an increase in Conn score of 1 and asterixis grade of 1.
An efficacy endpoint was the time to first breakthrough overt HE episode. A breakthrough overt HE episode was defined as an increase of Conn score to Grade ≧2 (e.g., 0 or 1 to ≧2) or an increase in Conn and asterixis score of 1 grade each for those subjects who entered the study with a Conn score of 0. Time to breakthrough overt HE episode was the duration from time of first dose of study drug to the first breakthrough overt HE episode. […] Subjects who terminated early for reasons other than breakthrough overt HE were contacted at 6 months from randomization to determine if subjects had experienced a breakthrough overt HE episode or other outcome (e.g., mortality status); and, if the subject had no breakthrough overt HE event prior to contact, he/she was censored at the time of contact. […] Subjects in the study had ≧2 episodes of overt HE equivalent to Conn score ≧2 within 6 months prior to screening (i.e., subjects had documented recurrent, overt HE). At the baseline assessment, subjects were in remission with a Conn score of 0 or 1. A breakthrough overt HE episode, as defined above, was a marked deterioration in neurological function.
Presented herein are the results of the first study and second study. […] The primary efficacy endpoint was the time to breakthrough overt HE. Breakthrough overt HE was defined as an increase of Conn score to Grade ≧2 (e.g., 0 or 1 to ≧2) or an increase in Conn and asterixis score of 1 grade each for those subjects who entered the study with a Conn score of 0. Subjects discontinued from the study at the time of breakthrough overt HE episode. After participation in the first study, subjects had the option to enroll in the open-label, treatment-extension study (the second study).
FIG. 1 illustrates Kaplan-Meier estimates of time to first breakthrough overt HE episode by treatment group in the ITT population. Table 18 presents Kaplan-Meier estimates of the proportions of subjects who experienced breakthrough overt HE over the course of the Treatment Period and results of statistical analyses. […] Subjects who terminated early for reasons other than breakthrough overt HE (e.g., liver transplant, AE, subject request) were contacted at 6 months from date of randomization to determine if subjects had experienced a breakthrough overt HE episode or other outcome (e.g., mortality status). Subjects without breakthrough overt HE were censored at the time of contact or death, whichever was earlier.

[2] = tested on: subjects in remission from hepatic encephalopathy (HE); assay: First study: critical flicker frequency (CFF) test; format: in vivo, human; conditions: for Critical flicker frequency test: r9 Mean, r11 Median, r12 Min, r13 Max; for Mean (SD) change in CFF result: baseline to end of treatment
Protocol: The Critical Flicker Frequency (CFF) was assessed for each subject at screening, baseline, visits 3 through 14 and the end of study visit using the Lafayette Flicker Fusion (Lafayette Instrument Company, Inc). Circular light pulses with a 1:1 ratio between the visual impulse and the interval were used with decreasing frequency in gradual steps of 0.5 to 0.1 Hz/second. The frequency of the white light, which is initially generated as a high-frequency pulse (50 Hz) and which gives the patient the impression of a steady light, was reduced gradually until the patient had the impression that the steady light had changed to a flicker. The patient registered this change by pressing a hand-held switch. […] The process was conducted in a quiet, semi-darkened room without distracting noises and took about 10 minutes.
The critical flicker frequency (CFF) was assessed for each subject using a specialized CFF instrument. The CFF is the frequency at which the subject observes a constant light transition to a flickering light and is measured in Hertz (Hz). CFF is an objective assessment of mental status.
The CFF was measured on a continuous scale and was the mean of 8 separate fusion-to-flicker transition tests performed in rapid succession.
Mean values and mean changes from baseline in blood ammonia concentration and critical flicker frequency values were collected. Analyses of blood ammonia concentrations and critical flicker frequency values were based upon quantitative values (not qualitative grades). Treatment differences for mean change from baseline in these parameters was estimated using a mixed effects model with fixed effects for time and baseline value.

Campylobacter jejuni = assay: Travelers' diarrhea Study 2: fever/blood in stool, Campylobacter jejuni; parameters: species or system human; conditions: in vivo
Protocol: One study was conducted at clinical sites in Mexico, Guatemala, and Kenya (Study 1). The other study was conducted in Mexico, Guatemala, Peru, and India (Study 2). Stool specimens were collected before treatment and 1 to 3 days following the end of treatment to identify enteric pathogens. The predominant pathogen in both studies was Escherichia coli.
The results of Study 2 supported the results presented for Study 1. […] These subjects had lower clinical cure rates than those without fever or blood in the stool at baseline. Many of the patients with fever and/or blood in the stool (dysentery-like diarrheal syndromes) had invasive pathogens, primarily Campylobacter jejuni, isolated in the baseline stool.
In addition to not being different from placebo, the microbiologic eradication rates for subjects with Campylobacter jejuni isolated at baseline were much lower than the eradication rates seen for Escherichia coli.

cytochrome P450 2D6 = biological target: T1, cytochrome P450 2D6 (Homo sapiens, UniProt P10635); assay: In vitro cytochrome P450 inhibition; format: in vitro ADME; conditions: 2 to 200 ng/mL
T1 construct: from tissue; host or cells: human liver fractions
T1 sequence (P10635 whole entry): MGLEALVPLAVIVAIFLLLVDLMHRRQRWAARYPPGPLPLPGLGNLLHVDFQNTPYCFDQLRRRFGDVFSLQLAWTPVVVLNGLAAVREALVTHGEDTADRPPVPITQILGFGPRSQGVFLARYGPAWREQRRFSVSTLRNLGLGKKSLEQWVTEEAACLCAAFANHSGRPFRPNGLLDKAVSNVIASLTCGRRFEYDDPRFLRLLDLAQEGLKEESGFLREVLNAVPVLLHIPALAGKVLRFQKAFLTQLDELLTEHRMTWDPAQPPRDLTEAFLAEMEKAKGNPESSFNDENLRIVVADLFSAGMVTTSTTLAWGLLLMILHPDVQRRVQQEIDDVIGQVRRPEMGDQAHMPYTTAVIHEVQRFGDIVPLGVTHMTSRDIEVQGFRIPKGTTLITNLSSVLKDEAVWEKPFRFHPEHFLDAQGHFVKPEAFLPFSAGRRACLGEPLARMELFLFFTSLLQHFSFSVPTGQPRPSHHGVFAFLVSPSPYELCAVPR

Compound: CO[C@H]1/C=C/O[C@@]2(C)Oc3c(C)c(O)c4c(O)c(c5c(nc6cc(C)ccn65)c4c3C2=O)NC(=O)/C(C)=C\C=C\[C@H](C)[C@H](O)[C@@H](C)[C@@H](O)[C@@H](C)[C@H](OC(C)=O)[C@@H]1C [rifaximin, (2S,16Z,18E,20S,21S,22R,23R,24R,25 S,26S,27S,28E)-5,6,21,23,25-pentahydroxy-27-methoxy-2,4,11,16,20,22,24,26-octamethyl-2,7-(epoxypentadeca-[1,11,13]trienimino)benzofuro[4,5-e]pyrido[1,2-á]-benzimidazole-1,15(2H)-dione,25-acetate]
- reduction in risk of breakthrough overt HE vs placebo, adjusted for prognostic factors ([1]; 550 mg BID): 60%
- reduction in risk of breakthrough overt HE vs placebo ([1]; 550 mg BID, 6-month treatment): 58% and 57.9%
- subjects with breakthrough overt HE episodes ([1]; 550 mg BID, 6 months): 22%
- subjects with breakthrough overt HE episodes ([1]; 550 mg BID, up to Day 170): 31 of 140
- Survival ([1]; N = 140; days: r10 [0-28), r11 [28-56), r12 [56-84), r13 [84-140), r14 [140-168), r15 >=168): 1.0000 and 0.9071 and 0.8783 and 0.8344 and 0.7820 and 0.7740
- time to first breakthrough overt HE by region ([1]; North America versus Russia): highly significant protective effect
- Survival ([1]; by Baseline MELD Score Level, N = 11, days r10-r15 as E1301): 1.0000 and 0.9091 and 0.6364
- Survival ([1]; by Baseline MELD Score Level, N = 85, days r10-r15 as E1201): 1.0000 and 0.9059 and 0.8822 and 0.8459 and 0.7713 and 0.7580
- Survival ([1]; by Prior Lactulose Use, N = 123, days r10-r15 as E801): 1.0000 and 0.9024 and 0.8696 and 0.8278 and 0.7678 and 0.7586
- Survival ([1]; by Prior Lactulose Use, N = 127, days r11-r21 as E1401): 1.0000 and 0.9055 and 0.8737 and 0.8252 and 0.7754 and 0.7666
- patients experiencing a Conn Score of >=2 ([1]; component of breakthrough HE): 20%
- patients with worsening of Conn and asterixis grade of 1 each ([1]; component of breakthrough HE): 2%
- rate of breakthrough HE episodes adjusted for exposure ([1]; first study rifaximin group): 0.62 events/PEY
- patients with zero events over 6 months ([1]; in vivo): 78%
- time to breakthrough HE events vs placebo (FIG. 2) ([1]; in vivo): increased time to breakthrough HE events
- Mean (SD) CFF result ([2]; Baseline): 36.90 (5.47) Hz
- Critical flicker frequency test ([2]; Day 140, mean): 38.7 Hz
- Critical flicker frequency test ([2]; Day 140, median): 38.9 Hz
- Critical flicker frequency test ([2]; EOT, median): 37.8 Hz
- Mean (SD) CFF result ([2]; End of treatment): 37.81 (4.88) Hz
- Mean (SD) change in CFF result [2]: 0.945 (±4.75) Hz
- Mean (SD) change in CFF result ([2]; listed as Rifaximin): 0.945 (4.75) Hz
- improvement in CFF results compared with placebo ([2]; in vivo): statistically significant greater improvement
- clinical cure rate, Campylobacter jejuni as sole pathogen at baseline (Campylobacter jejuni): 23.5%
- effectiveness in travelers' diarrhea due to Campylobacter jejuni (Campylobacter jejuni): not effective
- inhibition of 2D6 (cytochrome P450 2D6): did not inhibit
